According to publication PMC10562782 (iScience, 2023):

What was measured:
Assay type in all cases: binding
[1] = target: T1, CtUGGTGT24 (UDP-glucose glycoprotein glucosyltransferase, catalytic domain) (Thermochaetoides thermophila, UniProt G0SB58); experiment: co-crystal structure
T1 sequence (G0SB58 1187-1473): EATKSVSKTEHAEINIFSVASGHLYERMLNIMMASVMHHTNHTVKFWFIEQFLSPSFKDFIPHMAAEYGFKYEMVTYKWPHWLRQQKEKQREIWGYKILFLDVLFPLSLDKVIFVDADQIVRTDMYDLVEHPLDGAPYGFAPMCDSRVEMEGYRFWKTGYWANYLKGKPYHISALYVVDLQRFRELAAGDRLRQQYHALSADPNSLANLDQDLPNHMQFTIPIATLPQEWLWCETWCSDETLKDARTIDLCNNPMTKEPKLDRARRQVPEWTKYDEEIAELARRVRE

[2] = target: T1, CtUGGTGT24 (UDP-glucose glycoprotein glucosyltransferase, catalytic domain); experiment: […] Å co-crystal structure
human UGGT1 = human UGGT1 (Homo sapiens, UniProt Q9NYU2); experiment: STD NMR
human UGGT1, sequence (Q9NYU2 43-1551): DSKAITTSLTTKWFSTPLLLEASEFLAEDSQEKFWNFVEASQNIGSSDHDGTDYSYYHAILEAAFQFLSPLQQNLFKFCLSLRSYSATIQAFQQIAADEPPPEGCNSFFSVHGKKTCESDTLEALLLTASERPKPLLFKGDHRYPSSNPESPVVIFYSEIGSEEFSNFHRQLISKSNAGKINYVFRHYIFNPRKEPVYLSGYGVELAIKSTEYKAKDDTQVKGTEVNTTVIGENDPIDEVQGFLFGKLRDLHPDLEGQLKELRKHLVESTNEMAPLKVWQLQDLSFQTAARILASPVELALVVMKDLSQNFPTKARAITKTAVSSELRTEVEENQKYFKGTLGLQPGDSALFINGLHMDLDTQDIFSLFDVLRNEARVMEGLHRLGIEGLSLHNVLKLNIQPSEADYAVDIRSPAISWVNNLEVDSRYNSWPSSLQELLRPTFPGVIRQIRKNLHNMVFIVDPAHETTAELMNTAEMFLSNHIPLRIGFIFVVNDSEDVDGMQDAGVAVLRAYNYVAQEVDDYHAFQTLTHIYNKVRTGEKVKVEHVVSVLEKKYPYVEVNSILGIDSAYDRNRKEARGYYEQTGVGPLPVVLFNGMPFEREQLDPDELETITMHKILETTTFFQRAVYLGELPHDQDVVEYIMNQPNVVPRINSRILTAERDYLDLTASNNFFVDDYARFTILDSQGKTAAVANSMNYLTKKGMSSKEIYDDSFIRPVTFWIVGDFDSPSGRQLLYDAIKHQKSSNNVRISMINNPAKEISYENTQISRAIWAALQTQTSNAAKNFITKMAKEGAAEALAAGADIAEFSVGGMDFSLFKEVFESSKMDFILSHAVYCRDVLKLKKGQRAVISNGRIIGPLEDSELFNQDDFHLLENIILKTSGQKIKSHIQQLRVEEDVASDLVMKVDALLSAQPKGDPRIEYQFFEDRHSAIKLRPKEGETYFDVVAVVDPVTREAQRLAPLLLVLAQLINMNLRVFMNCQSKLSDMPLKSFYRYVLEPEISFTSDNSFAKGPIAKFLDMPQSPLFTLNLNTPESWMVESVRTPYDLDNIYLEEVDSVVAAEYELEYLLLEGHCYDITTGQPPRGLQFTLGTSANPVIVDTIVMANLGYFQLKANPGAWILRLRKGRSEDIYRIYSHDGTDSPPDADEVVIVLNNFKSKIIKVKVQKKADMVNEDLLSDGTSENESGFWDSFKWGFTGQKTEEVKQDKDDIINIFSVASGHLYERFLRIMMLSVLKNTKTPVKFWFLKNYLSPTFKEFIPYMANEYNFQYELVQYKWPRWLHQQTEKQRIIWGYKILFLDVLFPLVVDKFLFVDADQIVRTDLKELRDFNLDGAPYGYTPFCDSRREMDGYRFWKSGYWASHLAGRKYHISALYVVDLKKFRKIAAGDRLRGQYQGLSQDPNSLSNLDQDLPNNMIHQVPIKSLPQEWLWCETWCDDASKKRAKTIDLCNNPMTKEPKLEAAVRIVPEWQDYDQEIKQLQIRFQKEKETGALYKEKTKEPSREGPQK

Structure (SMILES)	co-crystal structure (X-ray) [1]	Kd [2] [µM]	Kd (human UGGT1) [µM]
O=c1ccn([C@@H]2O[C@H](COP(=O)(O)OP(=O)(O)O[C@H]3O[C@H](CO)[C@@H](O)[C@H](O)[C@H]3F)[C@@H](O)[C@H]2O)c(=O)[nH]1 [U2F]	In the ^U2FCtUGGTGT24 structure (PDB ID 7ZLU) these two water molecules are replaced by an O atom		
Oc1ccc(CN2CCOCC2)c2cccnc12 [5M-8OH-Q, 5-[(morpholin-4-yl)methyl]quinolin-8-ol]		47 ± 0.7	613
